Test results taken from ChEMBL document CHEMBL1138646, “Carbonic anhydrase inhibitors: inhibition of the membrane-bound human isozyme IV with anions” (Bioorg Med Chem Lett, 2004).
Where “and” joins values, the source holds several entries; their conditions need not be identical. Identical values can stand only once.

Key:
Carbonic anhydrase 4 [1] = molecular target: T1, Carbonic anhydrase 4 (Homo sapiens, UniProt P22748)
Description: Inhibition constant of anion against human carbonic anhydrase isozyme hCA IV

Carbonic anhydrase 9 = Carbonic anhydrase 9 (Homo sapiens, UniProt Q16790)
Description: Inhibition constant of anion against human carbonic anhydrase isozyme hCA IX

Carbonic anhydrase V [2] = molecular target: T2, Carbonic anhydrase V (Homo sapiens, UniProt Q9Y2D0+P35218); format: protein assay
Description: Inhibition constant of anion against human carbonic anhydrase isozyme hCA V

Carbonic anhydrase V [3] = molecular target: T2, Carbonic anhydrase V; assay: Inhibition constant against human carbonic anhydrase isozyme hCA V; format: protein assay
Carbonic anhydrase 4 [4] = molecular target: T1, Carbonic anhydrase 4; assay: Inhibition constant against human carbonic anhydrase isozyme hCA IV

T1 sequence (P22748 whole entry): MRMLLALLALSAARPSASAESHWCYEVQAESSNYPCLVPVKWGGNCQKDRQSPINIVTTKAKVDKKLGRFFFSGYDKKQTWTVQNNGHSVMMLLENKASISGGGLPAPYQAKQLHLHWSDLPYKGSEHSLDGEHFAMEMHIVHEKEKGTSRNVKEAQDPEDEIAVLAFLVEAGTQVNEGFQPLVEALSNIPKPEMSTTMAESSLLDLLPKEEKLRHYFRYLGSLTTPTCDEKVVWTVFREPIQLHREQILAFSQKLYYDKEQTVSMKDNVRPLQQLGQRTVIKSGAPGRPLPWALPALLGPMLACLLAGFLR

Row | Compound | Ki (Carbonic anhydrase 4 [1]) | Ki (Carbonic anhydrase 9) | Ki (Carbonic anhydrase V [2]; read-out: Ki) | Ki (Carbonic anhydrase V [2]) | Ki (Carbonic anhydrase V [3]) | Ki (Carbonic anhydrase 4 [4])
1 | O=C(O)O [BICARBONATE] | 6.6 mM and 5.7 mM | 13 mM | 82 mM and 95 mM | – | – | –
2 | Br [BROMIDE] | 0.09 mM | 16 mM | 50 mM | – | – | –
3 | N#CO [CYANATE] | 0.61 mM | 0.04 mM | 0.02 mM | – | – | –
4 | F [FLUORIDE ION] | 0.07 mM | 48 mM | 241 mM | – | – | –
5 | Cl [HYDROCHLORIC ACID] | 0.09 mM | 33 mM | – | 156 mM | – | –
6 | S [HYDROGEN SULFIDE] | 3.9 mM | 0.007 mM | – | 0.02 mM | – | –
7 | I [IODIDE] | 0.08 mM | 7 mM | – | 25 mM | – | –
8 | O=[N+]([O-])O [NITRIC ACID] | 58.7 mM | 46 mM | – | 16 mM | – | –
9 | O=NO [NITROUS ACID] | 30.8 mM | – | 16 mM | – | – | –
10 | OB(O)c1ccccc1 [PHENYLBORONIC ACID] | – | – | – | – | 4.5 mM | 0.00088 mM
11 | NS(=O)(=O)O [SULFAMATE] | – | – | – | – | 0.12 mM | 0.00093 mM
12 | O=S(=O)(O)O [SULFURIC ACID] | 9 mM | – | – | 680 mM | – | –
13 | O=S(O)O [SULFUROUS ACID] | 13.2 mM | – | 65 mM | – | – | –
14 | N#CS [THIOCYANIC ACID] | 39 mM | 0.13 mM | 0.74 mM | – | – | –
